Assay results from patent publication US7098241B2, “Thiophene hydroxamic acid derivatives” (Hoffmann-La Roche Inc., priority 2002, dated 2006).

Columns and labels:
recombinant HDAC-1 = target: T1, recombinant HDAC-1 (Homo sapiens, UniProt Q13547); test: HDAC biochemical quench assay; conditions: recombinant HDAC-1 purified from HEK 293 cells, 1 uM peptide substrate, 90 min at room temperature
T1 construct: made in house; host or cells: HEK 293 cells
Text: The function of histone deacetylase (HDAC) is the deacetylation of lysines in e.g. histone H4. A peptide of 17 amino acids derived from histone H4 was labeled with TAMRA at the C-terminus and QSY-7 at the N-terminus and was used as a substrate (TAMRA-first17 aa of histone H4-QSY7). Following deacetylation by HDAC, the enzyme Lys C is able to cleave the peptide after lysine. […] Inhibition of HDAC by compounds results in low signals because Lys C could not cleave the substrate and the quench effect persists.
For dose response curves, 10 concentrations were diluted 1:3 starting at 30 uM. 10 ul compound dilution were put into each well of a 384 well plate. 10 ul HDAC were added (recombinant HDAC-1 purified from HEK 293 cells; enzyme activity has to be assessed for each preparation). 10 ul peptide substrate was added (1 uM final concentration, derived from 1 mM stock solution diluted 1:1000 in test buffer). After 90 min incubation at room temperature, the reaction was stopped by addition of 20 ul test buffer including 3 ug/ml Lys C and 0.075% SDS. After overnight incubation the fluorescence signal of TAMRA was measured (Victor 2 from Wallac, absorption 544 nm, emission 590 nm). The O.D. of DMSO-treated control wells is 100%, the % inhibition of compound treated wells is calculated in relation to 100%. Based on 10 concentrations a IC50 curve is generated by using XL.fit3.
Test buffer used: a mixture of 10 mM Hepes pH8, 10 mM NaCl, 10% Glycerol, 0.005% Triton X100, 0.1 mM EDTA, 0.1 mM TCEP. As plates were used 384 well plates (black, Greiner, 781077).

[1] = test system: HT-29 cells (human colon carcinoma cell line); test: MTT anti-proliferation assay on HT-29 cells; assay type: cell-based; conditions: Homo sapiens, 120 h, 384 well plates, 5 days, read-out: IC50 HT29 384
Text: MTT (3-(4,5-dimethylthiazol-2-yl)-2,5-diphenyl tetrazolium bromide) is widely used for the quantitative determination of cytotoxic effects or in vitro chemosensitivity of tumor cells. The assay is based on the cleavage of the yellow tetrazolium salt (MTT) to purple formazan crystals by metabolic active cells. For details, see Rubinstein, L. V., et al., J. Natl. Cancer Inst. 82 (1990) 1113.
We proceeded as follows: HT-29 cells (human colon carcinoma cell line) were cultivated in RPMI 1640, 2.5% FCS, 2 mM glutamine, 100 u/ml penicillin, 100 ug/ml streptomycin. For the assay the cells were seeded in 384 well plates, 900 cells per well, in the same medium. At the next day, the compounds (dissolved 10 mM in DMSO) were added in various concentrations ranging from 30 uM to 1.5 nM. After 5 days, the MTT assay was done mainly according to the instructions of the manufacturer (Cell proliferation kit I, MTT, from Roche Molecular Biochemicals). In brief: MTT labeling reagent was added to a final concentration of 0.5 mg/ml, added and incubated for 4 hrs at 37° C., 5% CO2. During this incubation time purple formazan crystals are formed. After addition of the solubilization solution (20% SDS in 0.02 M HCl) the plates were incubated overnight at 37° C., 5% CO2. After careful mixing, the plates were measured in Victor 2 (scanning multiwell spectrophotometer, Wallac) at 550 nm.
A decrease in number of living cells results in a decrease in the total metabolic activity in the sample. The decrease directly correlates to the amount of purple color resulting from the solubilization of the purple formazan crystals. Determination of IC50 was done using XL-fit.

T1 sequence (Q13547 whole entry, species assumed): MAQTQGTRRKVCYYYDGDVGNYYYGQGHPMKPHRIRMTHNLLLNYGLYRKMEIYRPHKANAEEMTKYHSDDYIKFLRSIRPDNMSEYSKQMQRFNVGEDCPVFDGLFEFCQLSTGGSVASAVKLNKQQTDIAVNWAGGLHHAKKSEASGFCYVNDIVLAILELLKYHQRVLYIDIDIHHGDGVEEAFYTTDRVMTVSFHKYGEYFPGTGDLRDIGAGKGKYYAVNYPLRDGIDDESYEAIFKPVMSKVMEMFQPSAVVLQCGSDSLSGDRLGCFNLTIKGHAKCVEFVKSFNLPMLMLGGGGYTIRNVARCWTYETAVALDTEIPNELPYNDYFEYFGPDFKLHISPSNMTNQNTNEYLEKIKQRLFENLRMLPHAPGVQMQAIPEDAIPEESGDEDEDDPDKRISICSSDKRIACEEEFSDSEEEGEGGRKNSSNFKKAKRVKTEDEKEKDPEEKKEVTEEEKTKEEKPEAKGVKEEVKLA

| IC50 (recombinant HDAC-1) [nM] | IC50 [1] [nM] | SMILES |
| --- | --- | --- |
| 3.17 | 580 | COC[C@H](NC(=O)c1ccc(C(=O)NO)s1)c1ccccc1 [Example 2l, (R)-thiophene-2,5-dicarboxylic acid 2-hydroxyamide 5-[(2-methoxy-1-phenyl-ethyl)-amide]] |
| 1.38 | 300 | O=C(NO)c1ccc(C(=O)N[C@@H]2CCc3ccccc32)s1 [Example 2m, (R)-thiophene-2,5-dicarboxylic acid 2-hydroxyamide 5-indan-1-ylamide] |
| 2.86 | 350 | O=C(NO)c1ccc(C(=O)N[C@@H]2CCCc3ccccc32)s1 [Example 2n, (R)-thiophene-2,5-dicarboxylic acid 2-hydroxyamide 5-[(1,2,3,4-tetrahydro-naphthalen-1-yl)-amide]] |
| 3.19 | 780 | CC[C@H](NC(=O)c1ccc(C(=O)NO)s1)c1ccccc1 [Example 4g, (S)-thiophene-2,5-dicarboxylic acid 2-hydroxyamide 5-[(1-phenyl-propyl)-amide]] |
| 2.6 | 560 | COc1ccc([C@H](C)NC(=O)c2ccc(C(=O)NO)s2)cc1 [Example 4i, (S)-thiophene-2,5-dicarboxylic acid 2-hydroxyamide 5-{[1-(4-methoxy-phenyl)-ethyl]-amide}] |
| 4.04 | 160 | COC[C@@H](NC(=O)c1ccc(C(=O)NO)s1)c1ccccc1 [Example 4l, (S)-thiophene-2,5-dicarboxylic acid 2-hydroxyamide 5-[(2-methoxy-1-phenyl-ethyl)-amide]] |
| 0.8 | 770 | O=C(NO)c1ccc(C(=O)N[C@H]2CCCc3ccccc32)s1 [Example 4n, (S)-thiophene-2,5-dicarboxylic acid 2-hydroxyamide 5-[(1,2,3,4-tetrahydro-naphthalen-1-yl)-amide]] |
| 1.66 | 60 | C[C@@H](NC(=O)c1ccc(C(=O)NO)s1)c1cccs1 [Example 7, (R)-Thiophene-2,5-dicarboxylic Acid 2-hydroxyamide 5-[(1-thiophen-2-yl-ethyl)-amide]] |
| 4.27 | 630 | O=C(NO)c1ccc(C(=O)N[C@@H](CN2CCOCC2)c2ccccc2)s1 [Example 8c, (R)-thiophene-2,5-dicarboxylic acid 2-hydroxyamide 5-[(2-morpholin-4-yl-1-phenyl-ethyl)-amide]] |
| 1.26 | 30 | C[C@@H](NC(=O)c1ccc(C(=O)NO)s1)c1ccc(C(F)(F)F)cc1 [Example 8d, (R)-thiophene-2,5-dicarboxylic acid 2-hydroxyamide 5-{[1-(4-trifluoromethyl-phenyl)-ethyl]-amide}] |
| 1.08 | 10 | C[C@@H](NC(=O)c1ccc(C(=O)NO)s1)c1ccc(C(C)(C)C)cc1 [Example 8e, (R)-thiophene-2,5-dicarboxylic acid 2-{[1-(4-tert-butyl-phenyl)-ethyl]-amide}5-hydroxyamide] |
| 1.33 | 40 | O=C(NO)c1ccc(C(=O)N[C@H](Cc2ccccc2)c2ccccc2)s1 [Example 8f, (R)-thiophene-2,5-dicarboxylic acid 2-[(1,2-diphenyl-ethyl)-amide]5-hydroxyamide] |
| 3.82 | 520 | C[C@H](NC(=O)c1ccc(C(=O)NO)s1)c1cccs1 [Example 9, (S)-Thiophene-2,5-dicarboxylic Acid 2-hydroxyamide 5-[(1-thiophen-2-yl-ethyl)-amide]] |
| 2.69 | 350 | C[C@H](NC(=O)c1ccc(C(=O)NO)s1)c1ccc(C(F)(F)F)cc1 [Example 10d, (S)-thiophene-2,5-dicarboxylic acid 2-hydroxyamide 5-{[1-(4-trifluoromethyl-phenyl)-ethyl]-amide}] |
| 1.39 | 580 | C[C@H](NC(=O)c1ccc(C(=O)NO)s1)c1ccc(C(C)(C)C)cc1 [Example 10e, (S)-thiophene-2,5-dicarboxylic acid 2-{[1-(4-tert-butyl-phenyl)-ethyl]-amide}5-hydroxyamide] |
| 0.58 | 40 | O=C(NO)c1ccc(C(=O)N[C@@H](Cc2ccccc2)c2ccccc2)s1 [Example 10f, (S)-thiophene-2,5-dicarboxylic acid 2-[(1,2-diphenyl-ethyl)-amide]5-hydroxyamide] |
